Measured values reported in PubChem BioAssay AID248 (DTP/NCI, 2004).
Several values for one entry are separate records, joined by “and”; a condition that tells them apart may be missing. Identical values can stand only once. Toxic doses and inconclusive results are not listed.

System: L1210 leukemia ip in BDF1 mice, survival T/C
Assay: NCI In Vivo Anticancer Drug Screen. Data for tumor model L1210 Leukemia (intraperitoneal) in B6D2F1 (BDF1) mice
Conditions: endpoint: mean survival time, higher = longer survival
Outline: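 Value reflects the ratio of survival in compound-treated mice to survival in vehicle-treated controls, with both groups carrying the same transplanted tumor.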

[1] = dose: 100.0 mg/kg/injection, schedule: Q01DX001 (ip), vehicle: saline
[2] = dose: 200.0 mg/kg/injection, schedule: Q01DX001 (ip), vehicle: saline

O=NN(CCCl)C(=O)NC1CCC(O)CC1 (stereo not drawn)
T/C (dose: 6.25 mg/kg/injection, schedule: Q01DX001 (ip), vehicle: saline with Tween-80): 121 % of control | T/C (dose: 12.5 mg/kg/injection, schedule: Q01DX001 (ip), vehicle: saline with Tween-80): 189 % of control | T/C (dose: 12.5 mg/kg/injection, schedule: Q01DX001 (ip), vehicle: saline): 172 % of control and 239 % of control | T/C (dose: 13.0 mg/kg/injection, schedule: Q01DX001 (ip), vehicle: saline): 384 % of control | T/C (dose: 20.0 mg/kg/injection, schedule: Q01DX001 (ip), vehicle: saline): 494 % of control | T/C (dose: 25.0 mg/kg/injection, schedule: Q01DX001 (ip), vehicle: saline with Tween-80): 211 % of control | T/C (dose: 25.0 mg/kg/injection, schedule: Q01DX001 (ip), vehicle: saline): 198 % of control and 210 % of control and 253 % of control | T/C (dose: 26.0 mg/kg/injection, schedule: Q01DX001 (ip), vehicle: saline): 401 % of control | T/C (dose: 30.0 mg/kg/injection, schedule: Q01DX001 (ip), vehicle: saline): 494 % of control | T/C (dose: 40.0 mg/kg/injection, schedule: Q01DX001 (ip), vehicle: saline): 435 % of control | T/C (dose: 44.0 mg/kg/injection, schedule: Q01DX001 (ip), vehicle: saline): 293 % of control | T/C (dose: 50.0 mg/kg/injection, schedule: Q01DX001 (ip), vehicle: saline with Tween-80): 264 % of control | T/C (dose: 50.0 mg/kg/injection, schedule: Q01DX001 (ip), vehicle: saline): 252 % of control and 113 % of control and 176 % of control | T/C (dose: 60.0 mg/kg/injection, schedule: Q01DX001 (ip), vehicle: saline): 240 % of control | T/C (dose: 100.0 mg/kg/injection, schedule: Q01DX001 (ip), vehicle: saline with Tween-80): 92 % of control | T/C [1]: 105 % of control and 99 % of control and 110 % of control | T/C (dose: 200.0 mg/kg/injection, schedule: Q01DX001 (ip), vehicle: saline with Tween-80): 87 % of control | T/C [2]: 103 % of control and 95 % of control and 106 % of control

COc1ccc2nccc(C=O)c2c1
T/C (dose: 50.0 mg/kg/injection, schedule: Q01DX001 (ip), vehicle: carboxymethylcellulose (CMC)): 108 % of control | T/C (dose: 100.0 mg/kg/injection, schedule: Q01DX001 (ip), vehicle: carboxymethylcellulose (CMC)): 102 % of control | T/C (dose: 100.0 mg/kg/injection, schedule: Q01DX009 (ip), vehicle: saline with Tween-80): 101 % of control | T/C (dose: 200.0 mg/kg/injection, schedule: Q01DX001 (ip), vehicle: carboxymethylcellulose (CMC)): 102 % of control | T/C (dose: 200.0 mg/kg/injection, schedule: Q01DX009 (ip), vehicle: saline with Tween-80): 95 % of control | T/C (dose: 200.0 mg/kg/injection, schedule: Q04DX003 (ip), vehicle: saline with Tween-80): 101 % of control | T/C (dose: 400.0 mg/kg/injection, schedule: Q01DX001 (ip), vehicle: carboxymethylcellulose (CMC)): 96 % of control | T/C (dose: 400.0 mg/kg/injection, schedule: Q04DX003 (ip), vehicle: saline with Tween-80): 89 % of control

N#CSc1ncnc2nc[nH]c12
T/C (dose: 3.5 mg/kg/injection, schedule: Q01DX Z (ip), vehicle: water): 104 % of control | T/C (dose: 5.3 mg/kg/injection, schedule: Q01DX Z (ip), vehicle: water): 104 % of control | T/C (dose: 6.0 mg/kg/injection, schedule: Q01DX Z (ip), vehicle: water): 105 % of control | T/C (dose: 8.0 mg/kg/injection, schedule: Q01DX Z (ip), vehicle: water): 107 % of control | T/C (dose: 8.8 mg/kg/injection, schedule: Q01DX Z (ip), vehicle: water): 114 % of control | T/C (dose: 12.0 mg/kg/injection, schedule: Q01DX Z (ip), vehicle: water): 105 % of control | T/C (dose: 13.3 mg/kg/injection, schedule: Q01DX Z (ip), vehicle: water): 108 % of control | T/C (dose: 20.0 mg/kg/injection, schedule: Q01DX Z (ip), vehicle: water): 122 % of control

CCOC(=O)/C(C#N)=C(/C)C(C)C(=O)OCC (stereo not drawn)
T/C [1]: 100 % of control | T/C (dose: 100.0 mg/kg/injection, schedule: Q01DX009 (ip), vehicle: saline): 102 % of control | T/C [2]: 100 % of control | T/C (dose: 400.0 mg/kg/injection, schedule: Q01DX001 (ip), vehicle: saline): 96 % of control
